Laboratory results reported in US20210187130A1, “PET RADIOPHARMACEUTICALS FOR NON-INVASIVE EVALUATION OF HIF-2alpha” (THE BOARD OF REGENTS OF THE UNIVERSITY OF TEXAS SYSTEM, priority 2019, published 2021).
Entries after “also recorded” stand apart in the source; their conditions may differ.

Experiments:
ccRCC = test: Phase 1 clinical trial in patients with ccRCC; type: in vivo
Description: The drug was remarkably well tolerated and a maximal tolerated dose (MTD) was not reached. […] The drug was also highly specific, and high-grade adverse effects were on-target, and expected, such as anemia (HIF-2 is known to regulate erythropoietin, and the effect could be overcome by exogenous erythropoietin administration). While the patient cohort evaluated had been extensively pretreated (typically ≥4 prior lines), activity of the inhibitor was still observed. Among 51 patients treated in the study at various dose levels, there was 1 complete response (CR), 6 partial response (PR), and 13 patients who remained on the study without progression beyond a year (FIG. 5). Overall, 42% of patients remained without progression for at least 4 months. […] Those data illustrated that even in highly pretreated RCC patients the HIF-2 Inhibitor was able to remain active.
The Phase I trial was accompanied by a companion study involving imaging and tissue acquisition.

ccRCC TGs = test: PT2399 in RCC tumorgraft (patient-derived xenograft) platform; type: in vivo, mice
Method: (§1) This compound was evaluated in over 250 mice implanted with RCCs from 22 patients. […] This was also observed clinically.
Tumor samples collected fresh from kidney cancer surgeries were implanted orthotopically (in the kidney) of immunocompromised mice (NOD/SCID) within 3 hours. The samples were implanted without disaggregation or any additives, and it was previously shown that these tumorgrafts retained the histology, gene expression, DNA copy number alterations, mutations, and treatment responsiveness of the patient tumors. This platform of human RCC tumorgraft models was used to validate HIF-2α as a target in ccRCC (FIGS. 1 and 2). […] This same platform was used to evaluate the uptake of [^11C]PT2385 by ccRCC tumorgrafts expressing HIF-2α by PET imaging.

[1] = Tolerance (body weight) of tumorgraft-bearing mice; type: in vivo; settings: sunitinib at doses reproducing patient exposures
Method: as §1

[2] = among 51 patients, various dose levels

Compound | complete response (CR), number of patients (ccRCC; [2]) | partial response (PR), number of patients (ccRCC; [2]) | patients remaining on study without progression beyond a year (ccRCC; [2]) | serious adverse effects requiring treatment discontinuation (ccRCC; any patient) | maximal tolerated dose (MTD) (ccRCC; dose escalation and dose expansion cohorts) | dose-limiting toxicities (ccRCC; human, in vivo) | high-grade adverse effects (on-target) (ccRCC; human, in vivo) | patients without progression for at least 4 months (ccRCC; overall) | activity in HIF-2α deficient tumors (ccRCC; preliminary studies of patient tumor samples) | ccRCC tumorgrafts responsive (sensitive lines) (ccRCC TGs; RCCs from 22 patients, over 250 mice) | number of intermediate tumorgraft lines (ccRCC TGs; of all 22 tumorgraft lines) | number of resistant tumorgraft lines (ccRCC TGs; of all 22 tumorgraft lines) | number of sensitive tumorgraft lines (ccRCC TGs; of all 22 tumorgraft lines) | activity compared with sunitinib (ccRCC TGs; tumorgraft growth, sunitinib standard of care at the time) | body weight change of treated mice [1]
CS(=O)(=O)c1ccc(Oc2cc(F)cc(C#N)c2)c2c1[C@H](O)C(F)(F)C2 [PT2385] | 1 | 6 | 13 | no serious adverse effects requiring treatment discontinuation | not reached | no dose-limiting toxicities | anemia | 42% | no activity | – | – | – | – | – | –
N#Cc1cc(F)cc(Oc2ccc(S(=O)(=O)C(F)F)c3c2CC(F)(F)[C@H]3O)c1 [PT2399] | – | – | – | – | – | – | – | – | – | approximately 50% | 5 | 7 | 10 | more active than Sunitinib; also recorded: more effective than sunitinib | did not
CCN(CC)CCNC(=O)c1c(C)[nH]c(/C=C2\C(=O)Nc3ccc(F)cc32)c1C [sunitinib] | – | – | – | – | – | – | – | – | – | – | – | – | – | – | lost weight
